From article PMC5349447, “Applying a high-throughput fluorescence polarization assay for the discovery of chemical probes blocking La:RNA interactions in vitro and in cells” (PLoS ONE, 2017)

Molecular target: T1, La protein:fD1-RNA (Homo sapiens, UniProt P05455)
T1 construct: His; made in house; host or cells: E. coli BL21
T1 sequence (P05455 1-408): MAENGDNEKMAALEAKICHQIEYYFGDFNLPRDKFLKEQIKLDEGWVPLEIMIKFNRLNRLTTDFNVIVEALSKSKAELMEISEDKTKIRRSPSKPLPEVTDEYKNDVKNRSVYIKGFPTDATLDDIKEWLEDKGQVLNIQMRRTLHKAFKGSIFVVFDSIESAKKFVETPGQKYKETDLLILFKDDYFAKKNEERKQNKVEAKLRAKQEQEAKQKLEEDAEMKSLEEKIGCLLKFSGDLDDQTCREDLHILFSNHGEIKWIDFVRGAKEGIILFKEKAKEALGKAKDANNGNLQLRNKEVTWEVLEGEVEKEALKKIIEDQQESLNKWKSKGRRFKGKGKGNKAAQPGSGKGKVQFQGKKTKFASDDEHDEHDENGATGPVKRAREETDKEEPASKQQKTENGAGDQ
Experiment: La:RNA fluorescence polarization assay (La-FP)
Format: binding
Settings: for IC50: 1.35 μM La, 0.8 μM fD1-RNA, compound at 25, 50, 100, 1000 μM, read-out: IC50, La:fD1-RNA complex formation (La-FP); for inhibition at 100 µM: compound 100 μM; for inhibition at 1000 µM: compound 1000 μM
Experimental: Measurements of fluorescence and fluorescence polarization were performed on a Spectramax M5 microplate reader (Molecular Devices, Sunnyvale, CA) with the excitation and emission wavelengths 544 nm and 590 nm, respectively. To block unwanted residual excitation light and minimize background interference, a 570 nm “cutoff” filter was applied. Black shallow 384-well micro plates (ProxiPlate ^TM– 384 F Plus, PerkinElmer) were used to record data. To minimize the polarization effects from fluorophore, which may be bound to the surface of the well, both excitation and emission data were recorded from the top of the well. Reading time was 100 ms per well. Millipolarization units (mP) were used to express fluorescence polarization values defined by the equation mP = 1000 x [(Iv—GIh) / (Iv+ GIh)], where Iv and Ih are parallel and perpendicular emission intensity measurements corrected for background (buffer), and G-factor.
The ratio of sensitivities of the detection system for vertically and horizontally polarized light G = Iv/Ih was determined with dilution series of the fluorescence-labeled cyclin D1-RNA oligonucleotide (fD1) only (free-tracer) using SoftMax® Pro Data Acquisition & Analysis Software (Molecular Devices, Sunnyvale, CA). The assay window–the specific binding ΔmP–was defined as the difference between fluorescence polarization (mP) for La protein:fD1 reactions (mPs) and fluorescence polarization of free-fD1 reactions (mPfree): ΔmP = mPs−mPfree.
The assay was formatted using 10 μl reaction volume per well. Assay buffer (20 mM Tris-HCl pH 7.5, 3.0 mM MgCl2, 0.5 mM EDTA, 150 mM NaCl, 0.05% IGEPAL, BGG 100 μg/ml (BGG = Bovine γ-Globulin or γ-Globulins from bovine blood)) was used to dilute all ingredients. Detergent was added to prevent the potential aggregation of small compounds. The aggregation of small compounds can lead to false-positive results in HTS approaches and is indicated by a high Hill factor[50]. To find the optimal concentration of the free fluorescent tracer (fD1), which gives low and stable fluorescence polarization signal, and to calculate the G-factor, 100–1000 nM fD1 dilution series were measured in quadruplicates. Using variable fD1 concentrations, the optimal tracer:protein ratio was determined in binding experiments with increasing concentrations of La protein (1.35–1350 nM). To start the reaction, fD1 and La protein stock solutions were mixed into each well. Each reaction was performed in quadruplicates. After shaking the plate for 2 min followed by 15 min incubation at room temperature, fluorescence polarization signals were recorded as described above. Fluorescence polarization measurements were performed on different days using 7 microtiter plates (111 samples total).
High-throughput screening against the ChemBridge DIVERSet library was carried out under the following conditions: 1 μl of each compound (dissolved in 100% DMSO) was pre-incubated with 8 μl of La protein for 30 min at room temperature, followed by an additional 15 min incubation with 1 μl of fD1 (final concentration of La, fD1, and DMSO in the 10 μl reaction: 1.35 μM La, 0.8 μM fD1, 10% DMSO). The reactions were performed in duplicate. In addition to samples with the compounds, each plate contained 2 background wells (10 μl buffer only), and at least 4 wells for Ps (La and fD1) and Pfree (fD1 alone) reactions. All samples included 10% DMSO. Pilot screening was carried out with 10 mM cocktails of 10 compounds (giving a final concentration of 100 μM for each compound). […] Using the same fluorescence polarization assay format, La protein (1.35 μM) was incubated with each potential hit compound at 25, 50, 100, 1000 μM (in triplicate) for 30 min, followed by an additional 15 min incubation with 0.8 μM fD1. Data points for specific binding (B) were normalized to the maximum specific binding (Bmax), which defines complete saturation of the La protein with fD1 in the absence of a compound (B/Bmax). […]

## CCOC(=O)c1ccc2c(c1)C1C=CCC1C(C(=O)O)N2 (stereo not drawn) [C6, 8-(ethoxycarbonyl)-3a,4,5,9b-tetrahydro-3Hcyclopenta[c]quinoline-4-carboxylic acid]
  IC50: 2.5 µM
  inhibition at 100 µM: 100%
  inhibition at 1000 µM: 100%

## O=C(O)c1ccccc1C(=O)c1ccc(O)cc1O [C2, 2-(2,4-dihydroxybenzoyl)benzoic acid]
  IC50: 7.5 µM
  inhibition at 100 µM: 100%
  inhibition at 1000 µM: 100%
